# Test results from US20250051338A1, “TYK2 DEGRADERS AND USES THEREOF” (Kymera Therapeutics, Inc., priority 2021, published 2025).
# Legend:
# Format in all cases: cell-based
# TYK2 [1] = molecular target: T1, TYK2 (Homo sapiens, UniProt P29597); assay: TYK2 degradation MSD assay in human PBMC cells; set-up: endogenous in cells; host or cells: human PBMC; conditions: 4 to 24 hours incubation, read-out: TYK2 MSD DC50 rating in human PBMC
# Experimental: (§1) Example 3. TYK2 Degradation MSD Assay in EBV-B, OCI-LY10, and Human PBMC Cells
# (§2) Degradation of TYK2 in cells was quantitatively measured using Meso Scale Discovery (MSD) technology. EBV-B, OCI-LY10 or human PBMC cells were seeded in 96-well plates with a density of 0.4 million cells per well in 100 μl fresh media. Compounds were then added to the assay plates with a final top concentration of 1 to 10 μM in a 1:3 dilution series with total of 9 doses. The assay plates were then incubated for 4 to 24 hours at 37° C. under 5% CO2. The assay plates were then centrifuged for 5 minutes, and the cell pellets were treated with 100 μl/well RIPA lysis buffer (Boston Bioproducts, BP-115D) with protease and phosphatase inhibitors (Roche, 05892791001 and 04906837001). To prepare MSD assay plates (MSD, L15XA), the plates were coated with the capture antibody (Santa Cruz Biotechnology, SC-5271) in PBS, at 40 μl/well. The plates were then incubated overnight at 4° C., washed 3 times with 150 μl/well TBST buffer (Cell Signaling Technology, 9997S) and blocked with 150 μl/well blocking buffer (MSD, R93BA-4). Cell lysates were then added to MSD assay plates and the plates were incubated at room temperature for 1 hour. The plates were then washed 3 times with 150 μl/well TBST buffer and 25 μl/well primary detection antibody (Cell Signaling Technology, #9312). The assay plates were then incubated at room temperature for 1 hour, washed 3 times with 150 μl/well TBST buffer, and 25 μl/well secondary detection antibody, SULFO-TAG anti-rabbit antibody (MSD, R32AB-1) were added. The assay plates were then incubated at room temperature for 1 hour, washed 3 times with 150 μl/well TBST buffer, and 150 μl/well MSD reading buffer (MSD, R92TC-2) were added. The plates were then analyzed by an MSD reader. The data was analyzed by GraphPad Prism and the dose dependent TYK2 degradation was fit using the four-parameter inhibitor vs. response nonlinear regression. The DC50 data were measured and categorized into different levels in Table H. The compound with DC50 less than or equal to 1 nM is marked as A, with DC50 more than 1 nM and less than or equal to 10 nM is marked as B, with DC50 more than 10 nM and less than or equal to 100 nM is marked as C, and with DC50 more than 100 nM or not available is marked as D.
# TYK2 [2] = molecular target: T1, TYK2; assay: TYK2 degradation MSD assay in EBV-B cells; set-up: endogenous in cells; host or cells: EBV-B cells; conditions: 4 to 24 hours incubation, read-out: TYK2 MSD DC50 rating in EBV-B
# Experimental: as §1, §2
# TYK2 [3] = molecular target: T1, TYK2; assay: TYK2 degradation MSD assay in OCI-LY10 cells; set-up: endogenous in cells; host or cells: EBV-B cells; conditions: 4 to 24 hours incubation, read-out: TYK2 MSD DC50 rating in OCI-LY10
# Experimental: as §1, §2
# T1 sequence (P29597 whole entry): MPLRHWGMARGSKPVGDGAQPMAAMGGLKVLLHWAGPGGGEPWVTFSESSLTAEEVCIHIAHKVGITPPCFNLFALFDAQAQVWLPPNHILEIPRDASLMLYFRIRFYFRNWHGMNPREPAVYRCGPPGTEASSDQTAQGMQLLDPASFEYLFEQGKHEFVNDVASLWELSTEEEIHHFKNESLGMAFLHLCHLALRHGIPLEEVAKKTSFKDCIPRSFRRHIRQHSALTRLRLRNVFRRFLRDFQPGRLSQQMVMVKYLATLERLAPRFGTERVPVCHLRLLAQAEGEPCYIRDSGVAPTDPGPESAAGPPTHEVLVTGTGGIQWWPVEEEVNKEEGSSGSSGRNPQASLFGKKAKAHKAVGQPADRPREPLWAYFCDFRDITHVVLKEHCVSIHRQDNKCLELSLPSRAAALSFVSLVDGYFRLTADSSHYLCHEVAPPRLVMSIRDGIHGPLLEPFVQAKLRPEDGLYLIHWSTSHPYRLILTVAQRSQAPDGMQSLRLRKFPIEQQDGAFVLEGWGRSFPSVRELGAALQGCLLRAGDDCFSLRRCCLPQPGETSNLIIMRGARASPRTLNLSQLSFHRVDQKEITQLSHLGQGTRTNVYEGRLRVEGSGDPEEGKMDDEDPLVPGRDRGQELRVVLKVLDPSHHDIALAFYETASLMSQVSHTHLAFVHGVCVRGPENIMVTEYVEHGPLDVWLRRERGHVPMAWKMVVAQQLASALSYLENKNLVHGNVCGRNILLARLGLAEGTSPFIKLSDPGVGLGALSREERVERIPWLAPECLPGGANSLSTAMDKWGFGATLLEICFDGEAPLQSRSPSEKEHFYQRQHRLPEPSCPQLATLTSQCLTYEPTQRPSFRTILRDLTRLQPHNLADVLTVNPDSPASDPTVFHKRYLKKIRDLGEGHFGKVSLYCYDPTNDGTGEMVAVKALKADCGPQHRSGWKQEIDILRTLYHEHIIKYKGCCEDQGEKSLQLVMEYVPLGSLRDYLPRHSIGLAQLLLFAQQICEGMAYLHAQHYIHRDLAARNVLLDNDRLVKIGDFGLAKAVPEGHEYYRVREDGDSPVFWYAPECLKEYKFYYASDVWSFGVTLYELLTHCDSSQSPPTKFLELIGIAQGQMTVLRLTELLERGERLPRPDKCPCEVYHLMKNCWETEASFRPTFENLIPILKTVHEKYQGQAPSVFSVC
SMILES,DC50 (TYK2 [1]),DC50 (TYK2 [2]),DC50 (TYK2 [3])
CNC(=O)c1cnc(Nc2ccc(CN3CCCC(c4cccc5c4n(C)c(=O)n5C4CCC(=O)NC4=O)C3)cn2)cc1Nc1cccc(-c2ncc(F)cn2)c1OC (stereo not drawn) [Example K156],> 100 nM,> 100 nM,> 100 nM
CNC(=O)c1cnc(Nc2ccc(CN(C)CCCOC3CCN(c4ccc5c(c4)n(C)c(=O)n5C4CCC(=O)NC4=O)CC3)cn2)cc1Nc1cccc(-c2ncc(F)cn2)c1OC (stereo not drawn) [Example K157],> 100 nM,< 1 nM,> 100 nM
CNC(=O)c1cnc(Nc2ccc(CN(C)CCCOC3CC(c4cccc5c4n(C)c(=O)n5C4CCC(=O)NC4=O)C3)cn2)cc1Nc1cccc(-c2ncc(F)cn2)c1OC (stereo not drawn) [Example K158],> 100 nM,< 1 nM,> 100 nM
CNC(=O)c1cnc(Nc2ccc(CN3CCC(OC4CC(c5ccc6c(c5)n(C)c(=O)n6C5CCC(=O)NC5=O)C4)CC3)cn2)cc1Nc1cccc(-c2ncc(F)cn2)c1OC (stereo not drawn) [Example K159],> 100 nM,< 1 nM,> 100 nM
CNC(=O)c1cnc(Nc2ccc(CN(C)C3CCCN(c4ccc5c(c4)n(C)c(=O)n5C4CCC(=O)NC4=O)C3)cn2)cc1Nc1cccc(-c2ncc(F)cn2)c1OC (stereo not drawn) [Example K160],> 100 nM,< 1 nM,> 100 nM
CNC(=O)c1cnc(Nc2ccc(CN3CC(N(C)c4cccc5c4n(C)c(=O)n5C4CCC(=O)NC4=O)C3)cn2)cc1Nc1cccc(-c2ncc(F)cn2)c1OC (stereo not drawn) [Example K161],> 100 nM,1 to 10 nM,> 100 nM
CNC(=O)c1cnc(Nc2ccc(CN(C)C3CCCN(c4cccc5c4n(C)c(=O)n5C4CCC(=O)NC4=O)C3)cn2)cc1Nc1cccc(-c2ncc(F)cn2)c1OC (stereo not drawn) [Example K162],> 100 nM,1 to 10 nM,> 100 nM
CNC(=O)c1cnc(Nc2ccc(CN3CC(N(C)c4ccc5c(c4)n(C)c(=O)n5C4CCC(=O)NC4=O)C3)cn2)cc1Nc1cccc(-c2ncc(F)cn2)c1OC (stereo not drawn) [Example K163],> 100 nM,> 100 nM,> 100 nM
CNC(=O)c1cnc(Nc2ccc(CN3CCC(N(C)c4ccc5c(c4)n(C)c(=O)n5C4CCC(=O)NC4=O)C3)cn2)cc1Nc1cccc(-c2ncc(F)cn2)c1OC (stereo not drawn) [Example K164],> 100 nM,< 1 nM,> 100 nM
CNC(=O)c1cnc(Nc2ccc(CN3CCC(c4cccc5c4n(C)c(=O)n5C4CCC(=O)NC4=O)C3)cn2)cc1Nc1cccc(-c2ncc(F)cn2)c1OC (stereo not drawn) [Example K165],> 100 nM,1 to 10 nM,> 100 nM
CNC(=O)c1cnc(Nc2ccc(CN3CCC(c4ccc5c(c4)n(C)c(=O)n5C4CCC(=O)NC4=O)C3)cn2)cc1Nc1cccc(-c2ncc(F)cn2)c1OC (stereo not drawn) [Example K166],> 100 nM,< 1 nM,> 100 nM
CNC(=O)c1cnc(Nc2ccc(CN3CCC(c4cccc5c4n(C)c(=O)n5C4CCC(=O)NC4=O)CC3)cn2)cc1Nc1cccc(-c2ncc(F)cn2)c1OC (stereo not drawn) [Example K167],> 100 nM,< 1 nM,> 100 nM
CNC(=O)c1cnc(Nc2ccc(CN3CCCC(c4ccc5c(c4)n(C)c(=O)n5C4CCC(=O)NC4=O)C3)cn2)cc1Nc1cccc(-c2ncc(F)cn2)c1OC (stereo not drawn) [Example K168],> 100 nM,> 100 nM,> 100 nM
CCNC(=O)c1cnc(Nc2ccc(C(=O)N(C)C3CCN(c4cccc5c4n(C)c(=O)n5C4CCC(=O)NC4=O)CC3)cn2)cc1Nc1cccc(-c2ncc(F)cn2)c1OC (stereo not drawn) [Example K169],> 100 nM,1 to 10 nM,> 100 nM
CNC(=O)c1cnc(Nc2ccc(CN(C)C3CCN(c4ccc5c(c4)n(C)c(=O)n5C4CCC(=O)NC4=O)C3)cn2)cc1Nc1cccc(-c2ncc(F)cn2)c1OC (stereo not drawn) [Example K170],> 100 nM,< 1 nM,> 100 nM
CNC(=O)c1cnc(Nc2ccc(CN(C)C3CCN(c4cccc5c4n(C)c(=O)n5C4CCC(=O)NC4=O)C3)cn2)cc1Nc1cccc(-c2ncc(F)cn2)c1OC (stereo not drawn) [Example K171],> 100 nM,< 1 nM,> 100 nM

SMILES,DC50 (TYK2 [1]),DC50 (TYK2 [2]),DC50 (TYK2 [3])
CNC(=O)c1cnc(Nc2ccc(CN3CCC(c4ccc5c(c4)n(C)c(=O)n5C4CCC(=O)NC4=O)CC3)cn2)cc1Nc1cccc(-c2ncc(F)cn2)c1OC (stereo not drawn) [Example K172],> 100 nM,< 1 nM,> 100 nM
CNC(=O)c1cnc(Nc2ccc(CN3CCN(c4cccc5c4n(C)c(=O)n5C4CCC(=O)NC4=O)CC3)cn2)cc1Nc1cccc(-c2ncc(F)cn2)c1OC (stereo not drawn) [Example K173],> 100 nM,< 1 nM,> 100 nM
CNC(=O)c1cnc(Nc2ccc(C3CCN(Cc4cccc5c4n(C)c(=O)n5C4CCC(=O)NC4=O)CC3)cn2)cc1Nc1cccc(-c2ncc(F)cn2)c1OC (stereo not drawn) [Example K174],> 100 nM,1 to 10 nM,> 100 nM
CNC(=O)c1cnc(Nc2ccc(CN3CCC(N(C)c4ccc5c(c4)n(C)c(=O)n5C4CCC(=O)NC4=O)CC3)cn2)cc1Nc1cccc(-c2ncc(F)cn2)c1OC (stereo not drawn) [Example K175],< 1 nM,< 1 nM,> 100 nM
CNC(=O)c1cnc(Nc2cc(CN3CCN(c4cccc5c4n(C)c(=O)n5C4CCC(=O)NC4=O)CC3)ccn2)cc1Nc1cccc(-c2ncc(F)cn2)c1OC (stereo not drawn) [Example K176],< 1 nM,1 to 10 nM,> 100 nM
CNC(=O)c1cnc(Nc2ccc(CN3CCN(c4ccc5c(c4)n(C)c(=O)n5C4CCC(=O)NC4=O)CC3)cn2)cc1Nc1cccc(-c2ncc(F)cn2)c1OC (stereo not drawn) [Example K177],< 1 nM,< 1 nM,> 100 nM
CNC(=O)c1cnc(Nc2ccc(C(=O)N(C)C3CCN(c4ccc5c(c4)n(C)c(=O)n5C4CCC(=O)NC4=O)CC3)cn2)cc1Nc1cccc(-c2ncc(F)cn2)c1OC (stereo not drawn) [Example K178],< 1 nM,< 1 nM,> 100 nM
COc1c(Nc2cc(Nc3cc(C(=O)NCCCCc4cccc5c4n(C)c(=O)n5C4CCC(=O)NC4=O)ccn3)ncc2C(=O)NC2CC2)cccc1-c1ncc(F)cn1 (stereo not drawn) [Example K179],10 to 100 nM,> 100 nM,> 100 nM
COc1c(Nc2cc(Nc3ccc(C(=O)NCCCCc4cccc5c4n(C)c(=O)n5C4CCC(=O)NC4=O)cn3)ncc2C(=O)NC2CC2)cccc1-c1ncc(F)cn1 (stereo not drawn) [Example K180],1 to 10 nM,10 to 100 nM,> 100 nM
CCNC(=O)c1cnc(Nc2cc(C(=O)NCCCCc3cccc4c3n(C)c(=O)n4C3CCC(=O)NC3=O)ccn2)cc1Nc1cccc(-c2ncc(F)cn2)c1OC (stereo not drawn) [Example K181],1 to 10 nM,> 100 nM,> 100 nM
CCNC(=O)c1cnc(Nc2ccc(C(=O)NCCCCc3cccc4c3n(C)c(=O)n4C3CCC(=O)NC3=O)cn2)cc1Nc1cccc(-c2ncc(F)cn2)c1OC (stereo not drawn) [Example K182],1 to 10 nM,10 to 100 nM,> 100 nM
CNC(=O)c1cnc(NC(=O)NCCCCCCCCCc2cccc3c2n(C)c(=O)n3C2CCC(=O)NC2=O)cc1Nc1cccc(-c2ncc(F)cn2)c1OC (stereo not drawn) [Example K183],1 to 10 nM,> 100 nM,> 100 nM
CNC(=O)c1cnc(NC(=O)NCCCCCCCCc2cccc3c2n(C)c(=O)n3C2CCC(=O)NC2=O)cc1Nc1cccc(-c2ncc(F)cn2)c1OC (stereo not drawn) [Example K184],1 to 10 nM,> 100 nM,> 100 nM
CNC(=O)c1cnc(NC(=O)NCCCCCCCc2cccc3c2n(C)c(=O)n3C2CCC(=O)NC2=O)cc1Nc1cccc(-c2ncc(F)cn2)c1OC (stereo not drawn) [Example K185],1 to 10 nM,> 100 nM,> 100 nM
CNC(=O)c1cnc(NC(=O)NCCCCCCCCCc2ccc3c(c2)n(C)c(=O)n3C2CCC(=O)NC2=O)cc1Nc1cccc(-c2ncc(F)cn2)c1OC (stereo not drawn) [Example K186],1 to 10 nM,> 100 nM,> 100 nM
CNC(=O)c1cnc(NC(=O)NCCCCCCCCc2ccc3c(c2)n(C)c(=O)n3C2CCC(=O)NC2=O)cc1Nc1cccc(-c2ncc(F)cn2)c1OC (stereo not drawn) [Example K187],1 to 10 nM,> 100 nM,> 100 nM
